Test results from patent US20230128402A1 (The Trustees of Princeton University, priority 2020, published 2023).
pIC50: −log10 of the molar value.

How the values were obtained:
[1] = biological target: T1, ALDH1a3 (Homo sapiens, UniProt P47895); assay: Aldh1a3 enzyme inhibition assay, recombinant hALDH1a3; format: biochemical; set-up: made in house; host or cells: E. coli BL21-DE3, pET-Aldh1a3; conditions: resorufin fluorescence, 20° C.
T1 sequence (P47895 1-512): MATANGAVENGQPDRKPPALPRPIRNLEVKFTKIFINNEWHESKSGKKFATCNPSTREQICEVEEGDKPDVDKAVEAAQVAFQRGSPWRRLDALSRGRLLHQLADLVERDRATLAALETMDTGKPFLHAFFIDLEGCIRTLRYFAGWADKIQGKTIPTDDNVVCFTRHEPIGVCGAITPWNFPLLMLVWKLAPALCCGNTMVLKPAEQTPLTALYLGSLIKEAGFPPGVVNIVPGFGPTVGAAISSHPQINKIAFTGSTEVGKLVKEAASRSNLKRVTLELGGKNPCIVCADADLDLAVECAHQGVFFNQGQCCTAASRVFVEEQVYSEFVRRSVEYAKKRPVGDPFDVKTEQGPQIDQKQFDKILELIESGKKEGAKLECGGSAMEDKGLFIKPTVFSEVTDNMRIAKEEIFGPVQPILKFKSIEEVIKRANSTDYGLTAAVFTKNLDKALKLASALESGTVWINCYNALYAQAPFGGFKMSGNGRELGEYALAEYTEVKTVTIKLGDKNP
Excerpt: (§1) Recombinant enzyme and inhibitor added immediately before assay. Reaction rate measured by resorufin fluorescence.

[2] = biological target: T2, mALDH1a3 (Mus musculus, UniProt Q9JHW9); assay: Aldh1a3 enzyme inhibition assay, recombinant mALDH1a3; format: biochemical; conditions: resorufin fluorescence, 20° C.
T2 construct: made in house; host or cells: E. coli BL21-DE3, pET-Aldh1a3
T2 sequence (Q9JHW9 1-512): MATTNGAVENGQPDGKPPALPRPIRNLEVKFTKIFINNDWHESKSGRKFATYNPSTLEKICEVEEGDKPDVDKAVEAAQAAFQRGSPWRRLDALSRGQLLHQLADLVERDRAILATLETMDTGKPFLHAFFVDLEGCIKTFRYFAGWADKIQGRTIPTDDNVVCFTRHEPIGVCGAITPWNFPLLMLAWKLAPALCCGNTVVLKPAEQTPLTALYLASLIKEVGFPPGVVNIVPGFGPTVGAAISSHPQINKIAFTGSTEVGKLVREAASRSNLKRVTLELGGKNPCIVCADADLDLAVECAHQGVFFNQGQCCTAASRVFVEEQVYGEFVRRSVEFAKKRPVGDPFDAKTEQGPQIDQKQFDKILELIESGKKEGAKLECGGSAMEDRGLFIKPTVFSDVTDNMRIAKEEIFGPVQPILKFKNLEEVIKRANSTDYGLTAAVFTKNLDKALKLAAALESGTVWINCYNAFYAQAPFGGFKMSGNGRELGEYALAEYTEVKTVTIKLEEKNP
Excerpt: as §1

Compound	pIC50 [1]	pIC50 [2]
CCc1cnccc1CC(=O)Nc1ccc2c(c1)CCC(=O)N2 [Compound 31, 2-(3-ethyl-4-pyridyl)-N-(2-oxo-3,4-dihydro-1H-quinolin-6-yl) acetamide]	< 5.30	< 5.30
CC1(C)Cc2cc(Nc3ccc4ccncc4c3)ccc2NC1=O [Compound 104, 6-(7-isoquinolylamino)-3,3-dimethyl-1,4-dihydroquinolin-2-one]	< 5.30	< 5.30
CCc1cnccc1C(=O)Nc1ccc2c(c1)CC(C)C(=O)N2 (stereo not shown) [Compound 63, 3-ethyl-N-(3-methyl-2-oxo-3,4-dihydro-1H-quinolin-6-yl)pyridine-4-carboxamide]	6.60 to 7.00	6.00 to 6.60
CC1(C)Cc2cc(Nc3ccc4ccccc4n3)c(F)cc2NC1=O [Compound 48, 7-fluoro-3,3-dimethyl-6-(2-quinolylamino)-1,4-dihydroquinolin-2-one]	6.00 to 6.60	6.00 to 6.60
CC1(C)Cc2cc(Nc3c[nH]c4ccccc4c3=O)ccc2NC1=O [Compound 115, 3,3-dimethyl-6-[(4-oxo-1H-quinolin-3-yl)amino]-1,4-dihydroquinolin-2-one]	< 5.30	< 5.30
COc1cnccc1C(=O)Nc1cc2c(cc1F)NC(=O)C(C)(C)C2 [Compound 41, N-(7-fluoro-3,3-dimethyl-2-oxo-1,4-dihydroquinolin-6-yl)-3-methoxy-pyridine-4-carboxamide]	< 5.30	< 5.30
CC1(C)Cc2cc(Nc3cnc4ccc(C(=O)O)cc4n3)ccc2NC1=O [Compound 118, 3-[(3,3-dimethyl-2-oxo-1,4-dihydroquinolin-6-yl)amino]quinoxaline-6-carboxylic acid]	< 5.30	< 5.30
Cn1ccc2nc(Nc3ccc4c(c3)CC(C)(C)C(=O)N4)ccc21 [Compound 113, 3,3-dimethyl-6-[(1-methylpyrrolo[3,2-b]pyridin-5-yl)amino]-1,4-dihydroquinolin-2-one]	< 5.30	< 5.30
Cc1cnccc1/C=C/c1ccc2c(c1)CCC(=O)N2 [Compound 30, 6-[(E)-2-(3-methyl-4-pyridyl)vinyl]-3,4-dihydro-1H-quinolin-2-one]	< 5.30	5.30 to 6.00
C=CCc1cnccc1C(=O)Nc1ccc2c(c1)CCC(=O)N2 [Compound 71, 3-allyl-N-(2-oxo-3,4-dihydro-1H-quinolin-6-yl)pyridine-4-carboxamide]	6.00 to 6.60	5.30 to 6.00
CC1(C)Cc2cc(Nc3ccc4c(n3)CCCC4=O)ccc2NC1=O [Compound 127, 3,3-dimethyl-6-[(5-oxo-7,8-dihydro-6H-quinolin-2-yl)amino]-1,4-dihydroquinolin-2-one]	5.30 to 6.00	< 5.30
CCc1cnccc1C(=O)Nc1ccc2c(c1)C(F)(F)C(=O)N2 [Compound 136]	5.30 to 6.00	< 5.30
CCc1cc(C#N)ccc1C(=O)Nc1cc2c(cc1F)NC(=O)C(C)(C)C2 [Compound 42, 4-cyano-2-ethyl-N-(7-fluoro-3,3-dimethyl-2-oxo-1,4-dihydroquinolin-6-yl)benzamide]	5.30 to 6.00	5.30 to 6.00
CCc1c[n+]([O-])ccc1C(=O)Nc1ccc2c(c1)CCC(=O)N2 [Compound 73, 3-ethyl-1-oxido-N-(2-oxo-3,4-dihydro-1H-quinolin-6-yl)pyridin-1-ium-4-carboxamide]	5.30 to 6.00	< 5.30
CC1(C)Cc2cc(NC3COc4ccccc4C3)ccc2NC1=O (stereo not shown) [Compound 105, 6-(chroman-3-ylamino)-3,3-dimethyl-1,4-dihydroquinolin-2-one]	< 5.30	< 5.30
O=C1CCc2cc(Nc3cnc4ccccc4n3)ncc2N1 [Compound 126, 6-(quinoxalin-2-ylamino)-3,4-dihydro-1H-1,7-naphthyridin-2-one]	6.00 to 6.60	> 7.00
O=C1CCc2cc(NC(=O)c3ccncc3CC3CC3)c(F)cc2N1 [Compound 81, 3-(cyclopropylmethyl)-N-(7-fluoro-2-oxo-3,4-dihydro-1H-quinolin-6-yl)pyridine-4-carboxamide]	> 7.00	> 7.00
CC1(C)Cc2cc(Nc3nc4ccccc4o3)ccc2NC1=O [Compound 99, 6-(1,3-benzoxazol-2-ylamino)-3,3-dimethyl-1,4-dihydroquinolin-2-one]	6.00 to 6.60	6.00 to 6.60

Compound	pIC50 [1]	pIC50 [2]
O=C1CCc2cc(Oc3ncc4ccccc4n3)ccc2N1 [Compound 119, 6-quinazolin-2-yloxy-3,4-dihydro-1H-quinolin-2-one]	< 5.30	< 5.30
CC1(C)Cc2cc(Nc3c[nH]c4c(c3=O)CCCC4)ccc2NC1=O [Compound 135, 3,3-dimethyl-6-[(4-oxo-5,6,7,8-tetrahydro-1H-quinolin-3-yl)amino]-1,4-dihydroquinolin-2-one]	< 5.30	< 5.30
O=C1CCc2cc(NC(=O)c3ccncc3C(F)(F)F)ccc2N1 [Compound 54, N-(2-oxo-3,4-dihydro-1H-quinolin-6-yl)-3-(trifluoromethyl)pyridine-4-carboxamide]	6.00 to 6.60	< 5.30
CC1(C)Cc2cc(Nc3ccc(Cl)cn3)ccc2NC1=O [Compound 123, 6-[(5-chloro-2-pyridyl)amino]-3,3-dimethyl-1,4-dihydroquinolin-2-one]	< 5.30	< 5.30
CCCc1cnccc1C(=O)Nc1cc2c(cc1F)NC(=O)CC2 [Compound 5]	> 7.00	6.00 to 6.60
CCc1cnccc1C(=O)Nc1cc2ccc(=O)[nH]c2cc1F [Compound 39, 3-ethyl-N-(7-fluoro-2-oxo-1H-quinolin-6-yl) pyridine-4-carboxamide]	6.00 to 6.60	5.30 to 6.00
CCc1cnc(Cl)cc1C(=O)Nc1cc2c(cc1F)NC(=O)CC2 [Compound 80, 2-chloro-5-ethyl-N-(7-fluoro-2-oxo-3,4-dihydro-1H-quinolin-6-yl)pyridine-4-carboxamide]	> 7.00	6.00 to 6.60
CC1(C)Cc2cc(Nc3ccc4c(Cl)cccc4n3)ccc2NC1=O [Compound 112, 6-[(5-chloro-2-quinolyl)amino]-3,3-dimethyl-1,4-dihydroquinolin-2-one]	6.00 to 6.60	6.00 to 6.60
CCc1cnccc1C(=O)Nc1ccc2c(c1)CC(C)(C)C(=O)N2 [Compound 18, N-(3,3-dimethyl-2-oxo-1,4-dihydroquinolin-6-yl)-3-ethyl-pyridine-4-carboxamide]	6.60 to 7.00	5.30 to 6.00
CCc1cnccc1C(=O)Nc1cc2c(cc1Cl)NC(=O)CC2 [Compound 70, N-(7-chloro-2-oxo-3,4-dihydro-1H-quinolin-6-yl)-3-ethyl-pyridine-4-carboxamide]	> 7.00	6.00 to 6.60
CC1(C)Cc2cc(Nc3ccc4cnccc4n3)ccc2NC1=O [Compound 95, 3,3-dimethyl-6-(1,6-naphthyridin-2-ylamino)-1,4-dihydroquinolin-2-one]	< 5.30	< 5.30
CCc1cccnc1C(=O)Nc1cc2c(cc1Cl)NC(=O)CC2 [Compound 72, N-(7-chloro-2-oxo-3,4-dihydro-1H-quinolin-6-yl)-3-ethyl-pyridine-2-carboxamide]	6.00 to 6.60	6.00 to 6.60
CC1(C)Cc2cc(Nc3ccc4ccncc4n3)ccc2NC1=O [Compound 94, 3,3-dimethyl-6-(1,7-naphthyridin-2-ylamino)-1,4-dihydroquinolin-2-one]	5.30 to 6.00	< 5.30
CCc1cnccc1C(=O)Nc1ccc2c(c1)CN(C)C(=O)N2 [Compound 20, 3-ethyl-N-(3-methyl-2-oxo-1,4-dihydroquinazolin-6-yl)pyridine-4-carboxamide]	5.30 to 6.00	< 5.30
CCc1c(C(=O)Nc2ccc3c(c2)CCC(=O)N3)ccnc1C [Compound 55, 3-ethyl-2-methyl-N-(2-oxo-3,4-dihydro-1H-quinolin-6-yl)pyridine-4-carboxamide]	6.00 to 6.60	6.00 to 6.60
CCc1cnc(C)cc1C(=O)Nc1cc2c(cc1F)NC(=O)CC2 [Compound 79, 5-ethyl-N-(7-fluoro-2-oxo-3,4-dihydro-1H-quinolin-6-yl)-2-methyl-pyridine-4 carboxamide]	6.00 to 6.60	6.00 to 6.60
Cc1ccc2ccc(Nc3ccc4c(c3)CCC(=O)N4)nc2c1 [Compound 91, 6-[(7-methyl-2-quinolyl)amino]-3,4-dihydro-1H-quinolin-2-one]	< 5.30	5.30 to 6.00
